Reference: patent USRE39591E1, “6-O-substituted ketolides having antibacterial activity” (Abbott Laboratories, priority 1996, dated 2007)

Tested on: up to 32 different microorganisms
Assay: in vitro antibacterial activity (MIC), agar dilution on Brain Heart Infusion (BHI) agar with Steers replicator
Assay type: cell-based
Conditions: unit assumed
How it was run: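 Erythromycin A served as the same-class reference for test-to-test comparability. Test compound was tested over twelve successive dilutions in BHI agar; plates were incubated 20 to 24 hours at 35°-37° C, with MIC taken as the lowest concentration showing no growth, slight haze, or sparse colonies.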

CC[C@H]1OC(=O)[C@H](C)C(=O)[C@H](C)[C@@H](O[C@@H]2O[C@H](C)C[C@H](N(C)C)[C@H]2O)[C@@](C)(OCC=Cc2ccccc2)C[C@@H](C)C(=O)[C@H](C)[C@H]2NC(=O)O[C@@]21C [Example 103, Compound of Formula (IX): L is CO, T is NH, R is —CH2CH═CH-Phenyl]
MIC (Candida albicans CCH 442 (code TT)): > 100 µg/mL | MIC (Enterococcus faecism ATCC 8043 (code II)): 0.05 µg/mL | MIC (Escherichia coli DC-2 (code SS)): 100 µg/mL | MIC (Escherichia coli JUHL (code QQ)): 100 µg/mL | MIC (Escherichia coli SS (code RR)): 0.39 µg/mL | MIC (Haemophilis influenzae DILL AMP R (code WW)): 4 µg/mL | MIC (Micrococcus luteus ATCC 4698 (code PP)): 0.1 µg/mL | MIC (Micrococcus luteus ATCC 9341 (code OO)): 0.01 µg/mL | MIC (Mycobacterium smegmatis ATCC 114 (code UU)): 0.2 µg/mL | MIC (Nocardia Asteroides ATCC9970 (code VV)): 0.02 µg/mL | MIC (Staphylococcus aureus 1775 (code GG)): > 100 µg/mL | MIC (Staphylococcus aureus A5177 (code BB)): 0.1 µg/mL | MIC (Staphylococcus aureus A-5278 (code CC)): > 100 µg/mL | MIC (Staphylococcus aureus ATCC 6538P (code AA)): 0.1 µg/mL | MIC (Staphylococcus aureus CMX 553 (code FF)): 0.1 µg/mL | MIC (Staphylococcus aureus CMX 642A (code DD)): 0.1 µg/mL | MIC (Staphylococcus aureus NCTC10649M (code EE)): 0.1 µg/mL | MIC (Staphylococcus epidermidis 3519 (code HH)): 0.1 µg/mL | MIC (Streptococcus Pneumonia 5649 (code ZZA)): 0.25 µg/mL | MIC (Streptococcus Pneumonia 5979 (code ZZ)): 128 µg/mL | MIC (Streptococcus Pneumonia ATCC6303 (code XX)): 0.03 µg/mL | MIC (Streptococcus Pneumonia GYR 1171 (code YY)): 0.03 µg/mL | MIC (Streptococcus agalactiae CMX 508 (code KK)): 0.02 µg/mL | MIC (Streptococcus bovis A-5169 (code JJ)): 0.01 µg/mL | MIC (Streptococcus pyogenes 930 (code MM)): 100 µg/mL | MIC (Streptococcus pyogenes EES61 (code LL)): 0.02 µg/mL | MIC (Streptococcus pyogenes PIU 2548 (code NN)): 0.1 µg/mL

CCC1OC(=O)C(C)C(=O)C(C)C(OC2OC(C)CC(N(C)C)C2O)C(C)(OCC2CC2c2cnc3ccccc3c2)CC(C)C(=O)C(C)C2NC(=O)OC12C (stereo not drawn) [Example 243, Compound of Formula (IX): L is CO, T is NH, R is —CH2(2-(3-quinolyl)cyclopropyl)]
MIC (organism code AA): 0.05 µg/mL | MIC (organism code BB): 0.05 µg/mL | MIC (organism code CC): > 100 µg/mL | MIC (organism code DD): 0.05 µg/mL | MIC (organism code EE): 0.1 µg/mL | MIC (organism code FF): 0.05 µg/mL | MIC (organism code GG): > 100 µg/mL | MIC (organism code HH): 0.1 µg/mL | MIC (organism code II): 0.02 µg/mL | MIC (organism code JJ): 0.02 µg/mL | MIC (organism code KK): 0.02 µg/mL | MIC (organism code LL): 0.02 µg/mL | MIC (organism code MM): 6.2 µg/mL | MIC (organism code NN): 0.1 µg/mL | MIC (organism code OO): 0.02 µg/mL | MIC (organism code PP): 0.02 µg/mL | MIC (organism code QQ): 50 µg/mL | MIC (organism code RR): 0.2 µg/mL | MIC (organism code SS): 50 µg/mL | MIC (organism code TT): > 100 µg/mL | MIC (organism code UU): 0.39 µg/mL | MIC (organism code VV): 0.05 µg/mL | MIC (organism code WW): 4 µg/mL | MIC (organism code XX): 0.03 µg/mL | MIC (organism code YY): 0.03 µg/mL | MIC (organism code ZZ): 128 µg/mL | MIC (organism code ZZA): 0.25 µg/mL

CCC1OC(=O)C(C)C(=O)C(C)C(OC2OC(C)CC(N(C)C)C2O)C(C)(OCC=Cc2cccc(-c3ccccc3)c2)CC(C)C(=O)C(C)C2NC(=O)OC12C (stereo not drawn) [Example 280, Compound of Formula (IX): L is CO, T is NH2, R is —CH2CH═CH-(3-biphenyl)]
MIC (organism code AA): 0.39 µg/mL | MIC (organism code BB): 0.39 µg/mL | MIC (organism code CC): 50 µg/mL | MIC (organism code DD): 0.39 µg/mL | MIC (organism code EE): 0.39 µg/mL | MIC (organism code FF): 0.39 µg/mL | MIC (organism code GG): 50 µg/mL | MIC (organism code HH): 0.39 µg/mL | MIC (organism code II): 0.2 µg/mL | MIC (organism code JJ): 0.05 µg/mL | MIC (organism code KK): 0.05 µg/mL | MIC (organism code LL): 0.1 µg/mL | MIC (organism code MM): 12.5 µg/mL | MIC (organism code NN): 0.39 µg/mL | MIC (organism code OO): 0.1 µg/mL | MIC (organism code PP): 0.78 µg/mL | MIC (organism code QQ): > 100 µg/mL | MIC (organism code RR): 1.56 µg/mL | MIC (organism code SS): > 100 µg/mL | MIC (organism code TT): > 100 µg/mL | MIC (organism code UU): 3.1 µg/mL | MIC (organism code VV): 6.2 µg/mL | MIC (organism code WW): 8 µg/mL | MIC (organism code XX): 0.06 µg/mL | MIC (organism code YY): 0.06 µg/mL | MIC (organism code ZZ): 16 µg/mL | MIC (organism code ZZA): 1 µg/mL

C=CCO[C@@]1(C)C[C@@H](C)C(=O)[C@H](C)[C@H]2N(N)C(=O)O[C@]2(C)[C@@H](CC)OC(=O)[C@H](C)C(=O)[C@H](C)[C@H]1O[C@@H]1O[C@H](C)C[C@H](N(C)C)[C@H]1O [Example 262, Compound of Formula (IX): L is CO, T is N(NH2), R is —CH CH═CH2]
MIC (organism code AA): 0.78 µg/mL | MIC (organism code BB): 0.78 µg/mL | MIC (organism code CC): > 100 µg/mL | MIC (organism code DD): 0.78 µg/mL | MIC (organism code EE): 0.78 µg/mL | MIC (organism code FF): 0.78 µg/mL | MIC (organism code GG): > 100 µg/mL | MIC (organism code HH): 0.78 µg/mL | MIC (organism code II): 0.39 µg/mL | MIC (organism code JJ): ≤ 0.005 µg/mL | MIC (organism code KK): 0.05 µg/mL | MIC (organism code LL): 0.1 µg/mL | MIC (organism code MM): > 100 µg/mL | MIC (organism code NN): 0.78 µg/mL | MIC (organism code OO): 0.1 µg/mL | MIC (organism code PP): 0.39 µg/mL | MIC (organism code QQ): > 100 µg/mL | MIC (organism code RR): 1.56 µg/mL | MIC (organism code SS): > 100 µg/mL | MIC (organism code TT): > 100 µg/mL | MIC (organism code UU): 6.2 µg/mL | MIC (organism code VV): 0.39 µg/mL | MIC (organism code WW): 16 µg/mL | MIC (organism code XX): 0.03 µg/mL | MIC (organism code YY): 0.03 µg/mL | MIC (organism code ZZ): > 128 µg/mL | MIC (organism code ZZA): 0.5 µg/mL

CC[C@H]1OC(=O)[C@H](C)C(=O)[C@H](C)[C@@H](O[C@@H]2O[C@H](C)C[C@H](N(C)C)[C@H]2O)[C@@](C)(OCC#Cc2ccc3ccccc3c2)C[C@@H](C)C(=O)[C@H](C)[C@H]2NC(=O)O[C@@]21C [Example 251, Compound of Formula (IX): L is CO, T is NH, R is —CH2—C≡C-(2-naphthyl)]
MIC (organism code AA): 0.1 µg/mL | MIC (organism code BB): 0.1 µg/mL | MIC (organism code CC): > 100 µg/mL | MIC (organism code DD): 0.1 µg/mL | MIC (organism code EE): 0.1 µg/mL | MIC (organism code FF): 0.1 µg/mL | MIC (organism code GG): > 100 µg/mL | MIC (organism code HH): 0.1 µg/mL | MIC (organism code II): 0.1 µg/mL | MIC (organism code JJ): 0.02 µg/mL | MIC (organism code KK): 0.05 µg/mL | MIC (organism code LL): 0.05 µg/mL | MIC (organism code MM): 6.2 µg/mL | MIC (organism code NN): 0.2 µg/mL | MIC (organism code OO): 0.02 µg/mL | MIC (organism code PP): 0.2 µg/mL | MIC (organism code QQ): > 100 µg/mL | MIC (organism code RR): 1.56 µg/mL | MIC (organism code SS): > 100 µg/mL | MIC (organism code TT): > 100 µg/mL | MIC (organism code UU): 0.2 µg/mL | MIC (organism code VV): 0.05 µg/mL | MIC (organism code WW): 16 µg/mL | MIC (organism code XX): 0.125 µg/mL | MIC (organism code YY): 0.25 µg/mL | MIC (organism code ZZ): > 128 µg/mL | MIC (organism code ZZA): 1 µg/mL
